Measurements published in patent US8404708B2, “Dual NK1/NK3 receptor antagonists” (Hoffmann-La Roche Inc., priority 2004, dated 2013).

Key:
[1] = target: human NK1 receptor (Homo sapiens, UniProt P25103); test: NK1 receptor binding, [3H]substance P displacement, CHO cell membranes; settings: first value of the cell NK1/NK3; read-out: pKi NK1 (converted)
[2] = target: T1, Recombinant human NK3 (hNK3) receptor (Homo sapiens, UniProt P29371); test: NK3 receptor binding, [3H]SR142801 displacement, membrane preparations; settings: second value of the cell NK1/NK3; read-out: pKi NK3 (converted)
T1 construct: expressed in transfected cells
T1 sequence (P29371 1-465): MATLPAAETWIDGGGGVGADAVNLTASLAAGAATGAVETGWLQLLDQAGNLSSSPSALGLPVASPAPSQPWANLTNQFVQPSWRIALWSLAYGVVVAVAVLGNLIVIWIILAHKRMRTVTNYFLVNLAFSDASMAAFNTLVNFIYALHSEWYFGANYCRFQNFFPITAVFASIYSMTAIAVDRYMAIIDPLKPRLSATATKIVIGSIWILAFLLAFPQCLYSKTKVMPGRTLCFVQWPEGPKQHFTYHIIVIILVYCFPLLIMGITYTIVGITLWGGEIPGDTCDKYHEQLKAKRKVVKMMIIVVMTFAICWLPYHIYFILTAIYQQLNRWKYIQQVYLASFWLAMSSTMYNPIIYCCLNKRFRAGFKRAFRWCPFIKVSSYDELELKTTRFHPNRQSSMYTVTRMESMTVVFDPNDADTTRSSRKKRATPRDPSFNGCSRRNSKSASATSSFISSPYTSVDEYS
Summary of the method: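 hNK3 membranes (~2.5 μg/well) incubated 90 min at room temperature in 50 mM Tris-HCl pH 7.4 with 0.1% BSA, 4 mM MnCl2, 1 μM phosphoramidon. Nonspecific binding defined with 10 μM SB222200; bound [3H]SR142801 separated by filtration on PEI-soaked GF/C filters and counted by scintillation.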

Chain of human NK1 receptor (P25103 whole entry): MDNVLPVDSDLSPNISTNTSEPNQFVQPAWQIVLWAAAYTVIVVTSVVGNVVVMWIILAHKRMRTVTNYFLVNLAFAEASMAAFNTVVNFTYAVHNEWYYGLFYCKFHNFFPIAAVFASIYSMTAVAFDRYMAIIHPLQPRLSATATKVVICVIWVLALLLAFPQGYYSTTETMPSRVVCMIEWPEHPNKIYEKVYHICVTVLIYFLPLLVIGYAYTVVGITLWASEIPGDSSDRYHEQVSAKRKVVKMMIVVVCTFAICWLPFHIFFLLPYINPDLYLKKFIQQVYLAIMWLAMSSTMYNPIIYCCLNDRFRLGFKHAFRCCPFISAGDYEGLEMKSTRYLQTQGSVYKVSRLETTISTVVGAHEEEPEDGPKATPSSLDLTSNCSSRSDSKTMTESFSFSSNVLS

Question: Which results are given for CN(C(=O)C(C)(C)c1cc(C(F)(F)F)cc(C(F)(F)F)c1)c1cnc(N2C[C@H](O)C[C@H]2CO)cc1-c1cccc(F)c1 [Example 207, (2S,4R)-2-(3,5-Bis-trifluoromethyl-phenyl)-N-[4-(3-fluoro-phenyl)-6-(4-hydroxy-2-hydroxymethyl-pyrrolidin-1-yl)-pyridin-3-yl]-N-methyl-isobutyramide]?
Answer: Ki [1]: 1.38 nM; Ki [2]: 4.68 nM

Question: What does the source list for CN(C(=O)C(C)(C)c1cc(C(F)(F)F)cc(C(F)(F)F)c1)c1cnc(N2C[C@H](O)C[C@H]2CO)cc1-c1cc(F)cc(F)c1 [Example 208, (2S,4R)-2-(3,5-Bis-trifluoromethyl-phenyl)-N-[4-(3,5-difluoro-phenyl)-6-(4-hydroxy-2-hydroxymethyl-pyrrolidin-1-yl)-pyridin-3-yl]-N-methyl-isobutyramide]?
Answer: Ki [1]: 1.35 nM; Ki [2]: 6.17 nM

Question: For CN(C(=O)C(C)(C)c1cc(C(F)(F)F)cc(C(F)(F)F)c1)c1cnc(N2C[C@H](O)C[C@H]2CO)cc1-c1ccc(F)c(F)c1 [Example 209, (2S,4R)-2-(3,5-Bis-trifluoromethyl-phenyl)-N-[4-(3,4-difluoro-phenyl)-6-(4-hydroxy-2-hydroxymethyl-pyrrolidin-1-yl)-pyridin-3-yl]-N-methyl-isobutyramide], which Ki [1] is on record?
Answer: 1.35 nM

Question: What about the Ki [2] of the same compound?
Answer: 3.47 nM

Question: How did the Ki [1] turn out when Cc1ccc(-c2cc(N3C[C@H](O)C[C@H]3CO)ncc2N(C)C(=O)C(C)(C)c2cc(C(F)(F)F)cc(C(F)(F)F)c2)cc1F [Example 210, (2S,4R)-2-(3,5-Bis-trifluoromethyl-phenyl)-N-[4-(3-fluoro-4-methyl-phenyl)-6-(4-hydroxy-2-hydroxymethyl-pyrrolidin-1-yl)-pyridin-3-yl]-N-methyl-isobutyramide] was run?
Answer: 2.29 nM

Question: And the Ki [2]?
Answer: 13.8 nM

Question: How did the Ki [1] turn out when Cc1cc(-c2cc(N3C[C@H](O)C[C@H]3CO)ncc2N(C)C(=O)C(C)(C)c2cc(C(F)(F)F)cc(C(F)(F)F)c2)ccc1F [Example 211, (2S,4R)-2-(3,5-Bis-trifluoromethyl-phenyl)-N-[4-(4-fluoro-3-methyl-phenyl)-6-(4-hydroxy-2-hydroxymethyl-pyrrolidin-1-yl)-pyridin-3-yl]-N-methyl-isobutyramide] was run?
Answer: 1.66 nM

Question: What about the Ki [2] of the same compound?
Answer: 15.5 nM

Question: How did the Ki [1] turn out when CN(C(=O)C(C)(C)c1cc(C(F)(F)F)cc(C(F)(F)F)c1)c1cnc(N2C[C@H](O)C[C@H]2CO)cc1-c1ccc(F)c(Cl)c1 [Example 212, (2S,4R)-2-(3,5-Bis-trifluoromethyl-phenyl)-N-[4-(3-chloro-4-fluoro-phenyl)-6-(4-hydroxy-2-hydroxymethyl-pyrrolidin-1-yl)-pyridin-3-yl]-N-methyl-isobutyramide] was run?
Answer: 0.813 nM

Question: What about the Ki [2] of the same compound?
Answer: 2.51 nM

Question: How did the Ki [1] turn out when CN(C(=O)C(C)(C)c1cc(C(F)(F)F)cc(C(F)(F)F)c1)c1cnc(N2C[C@H](O)C[C@H]2CO)cc1-c1ccccc1N [Example 213, (2S,4R)-N-[4-(2-Amino-phenyl)-6-(4-hydroxy-2-hydroxymethyl-pyrrolidin-1-yl)-pyridin-3-yl]-2-(3,5-bis-trifluoromethyl-phenyl)-N-methyl-isobutyramide] was run?
Answer: 0.661 nM

Question: What about the Ki [2] of the same compound?
Answer: 3.24 nM

Question: COc1ccccc1-c1cc(N2C[C@H](O)C[C@H]2CO)ncc1N(C)C(=O)C(C)(C)c1cc(C(F)(F)F)cc(C(F)(F)F)c1 [Example 214, (2S,4R)-2-(3,5-Bis-trifluoromethyl-phenyl)-N-[6-(4-hydroxy-2-hydroxymethyl-pyrrolidin-1-yl)-4-(2-methoxy-phenyl)-pyridin-3-yl]-N-methyl-isobutyramide] was tested. Which Ki [1] did it give?
Answer: 1.02 nM

Question: What about the Ki [2] of the same compound?
Answer: 2.75 nM

Question: With CN(C(=O)C(C)(C)c1cc(C(F)(F)F)cc(C(F)(F)F)c1)c1cnc(N2C[C@H](O)C[C@H]2CO)cc1-c1ccccc1O [Example 215, (2S,4R)-2-(3,5-Bis-trifluoromethyl-phenyl)-N-[6-(4-hydroxy-2-hydroxymethyl-pyrrolidin-1-yl)-4-(2-hydroxy-phenyl)-pyridin-3-yl]-N-methyl-isobutyramide] as the compound, how does the Ki [1] read?
Answer: 1.02 nM

Question: What about the Ki [2] of the same compound?
Answer: 4.47 nM

Question: How did the Ki [1] turn out when Cc1ccccc1-c1cc(N2C[C@H](O)C[C@H]2CO)ncc1N(C)C(=O)C(C)(C)c1cc(C(F)(F)F)cc(C(F)(F)F)c1 [Example 216, (2S,4R)-2-(3,5-Bis-trifluoromethyl-phenyl)-N-[6-(4-hydroxy-2-hydroxymethyl-pyrrolidin-1-yl)-4-o-tolyl-pyridin-3-yl]-N-methyl-isobutyramide] was run?
Answer: 1.35 nM

Question: What about the Ki [2] of the same compound?
Answer: 0.794 nM

Question: For CSc1ccccc1-c1cc(N2C[C@H](O)C[C@H]2CO)ncc1N(C)C(=O)C(C)(C)c1cc(C(F)(F)F)cc(C(F)(F)F)c1 [Example 217, (2S,4R)-2-(3,5-Bis-trifluoromethyl-phenyl)-N-[6-(4-hydroxy-2-hydroxymethyl-pyrrolidin-1-yl)-4-(2-methylsulfanyl-phenyl)-pyridin-3-yl]-N-methyl-isobutyramide], which Ki [1] is on record?
Answer: 1.05 nM

Question: What about the Ki [2] of the same compound?
Answer: 2.4 nM

Question: Which Ki [1] does the source give for CN(C(=O)C(C)(C)c1cc(C(F)(F)F)cc(C(F)(F)F)c1)c1cnc(N2C[C@H](O)C[C@H]2CO)cc1-c1ccccc1S(C)(=O)=O [Example 218, (2S,4R)-2-(3,5-Bis-trifluoromethyl-phenyl)-N-[6-(4-hydroxy-2-hydroxymethyl-pyrrolidin-1-yl)-4-(2-methanesulfonyl-phenyl)-pyridin-3-yl]-N-methyl-isobutyramide] here?
Answer: 2.63 nM

Question: What about the Ki [2] of the same compound?
Answer: 7.24 nM

Question: For CN(C(=O)C(C)(C)c1cc(C(F)(F)F)cc(C(F)(F)F)c1)c1cnc(N2C[C@H](O)C[C@H]2CO)cc1-c1ccccc1C(N)=O [Example 219, (2S,4R)-2-[5-{[2-(3,5-Bis-trifluoromethyl-phenyl)-2-methyl-propionyl]-methyl-amino}-2-(4-hydroxy-2-hydroxymethyl-pyrrolidin-1-yl)-pyridin-4-yl]-benzamide], which Ki [1] is on record?
Answer: 1.45 nM

Question: And the Ki [2]?
Answer: 20.4 nM

Question: Which Ki [1] does the source give for CN(C(=O)C(C)(C)c1cc(C(F)(F)F)cc(C(F)(F)F)c1)c1cnc(N2C[C@H](O)C[C@H]2CO)cc1-c1ccc(F)cc1F [Example 220, (2S,4R)-2-(3,5-Bis-trifluoromethyl-phenyl)-N-[4-(2,4-difluoro-phenyl)-6-(4-hydroxy-2-hydroxymethyl-pyrrolidin-1-yl)-pyridin-3-yl]-N-methyl-isobutyramide] here?
Answer: 1.51 nM

Question: What about the Ki [2] of the same compound?
Answer: 6.61 nM

Question: Which Ki [1] does the source give for CN(C(=O)C(C)(C)c1cc(C(F)(F)F)cc(C(F)(F)F)c1)c1cnc(N2C[C@H](O)C[C@H]2CO)cc1-c1ccc(F)cc1Cl [Example 221, (2S,4R)-2-(3,5-Bis-trifluoromethyl-phenyl)-N-[4-(2-chloro-4-fluoro-phenyl)-6-(4-hydroxy-2-hydroxymethyl-pyrrolidin-1-yl)-pyridin-3-yl]-N-methyl-isobutyramide] here?
Answer: 0.933 nM

Question: What about the Ki [2] of the same compound?
Answer: 5.25 nM

Question: Which results are given for CN(C(=O)C(C)(C)c1cc(C(F)(F)F)cc(C(F)(F)F)c1)c1cnc(N2C[C@H](O)C[C@H]2CO)cc1-c1ccc(F)cc1C=O [Example 222, (2S,4R)-2-(3,5-Bis-trifluoromethyl-phenyl)-N-[4-(4-fluoro-2-formyl-phenyl)-6-(4-hydroxy-2-hydroxymethyl-pyrrolidin-1-yl)-pyridin-3-yl]-N-methyl-isobutyramide]?
Answer: Ki [1]: 1.05 nM; Ki [2]: 1.02 nM

Question: Which results are given for CN(C(=O)C(C)(C)c1cc(C(F)(F)F)cc(C(F)(F)F)c1)c1cnc(N2C[C@H](O)C[C@H]2CO)cc1-c1ccc(F)cc1CO [Example 223, (2S,4R)-2-(3,5-Bis-trifluoromethyl-phenyl)-N-[4-(4-fluoro-2-hydroxymethyl-phenyl)-6-(4-hydroxy-2-hydroxymethyl-pyrrolidin-1-yl)-pyridin-3-yl]-N-methyl-isobutyramide]?
Answer: Ki [1]: 0.708 nM; Ki [2]: 3.09 nM

Question: Which results are given for CN(C(=O)C(C)(C)c1cc(C(F)(F)F)cc(C(F)(F)F)c1)c1cnc(N2C[C@H](O)C[C@H]2CO)cc1-c1ccccc1C=O [Example 224, (2S,4R)-2-(3,5-Bis-trifluoromethyl-phenyl)-N-[4-(2-formyl-phenyl)-6-(4-hydroxy-2-hydroxymethyl-pyrrolidin-1-yl)-pyridin-3-yl]-N-methyl-isobutyramide]?
Answer: Ki [1]: 1.12 nM; Ki [2]: 1.51 nM

Question: With CN(C(=O)C(C)(C)c1cc(C(F)(F)F)cc(C(F)(F)F)c1)c1cnc(N2C[C@H](O)C[C@H]2CO)cc1-c1ccccc1CO [Example 225, (2S,4R)-2-(3,5-Bis-trifluoromethyl-phenyl)-N-[6-(4-hydroxy-2-hydroxymethyl-pyrrolidin-1-yl)-4-(2-hydroxymethyl-phenyl)-pyridin-3-yl]-N-methyl-isobutyramide] as the compound, how does the Ki [1] read?
Answer: 1.66 nM

Question: And the Ki [2]?
Answer: 2.57 nM

Question: Which Ki [1] does the source give for CN(C(=O)C(C)(C)c1cc(C(F)(F)F)cc(C(F)(F)F)c1)c1cnc(N2C[C@H](O)C[C@H]2CO)cc1-c1cc(Cl)ccc1Cl [Example 226, (2S,4R)-2-(3,5-Bis-trifluoromethyl-phenyl)-N-[4-(2,5-dichloro-phenyl)-6-(4-hydroxy-2-hydroxymethyl-pyrrolidin-1-yl)-pyridin-3-yl]-N-methyl-isobutyramide] here?
Answer: 7.76 nM

Question: What about the Ki [2] of the same compound?
Answer: 16.6 nM

Question: Which results are given for Cc1ccc(F)cc1-c1cc(N2C[C@H](O)C[C@H]2CO)ncc1N(C)C(=O)C(C)(C)c1cc(C(F)(F)F)cc(C(F)(F)F)c1 [Example 227, (2S,4R)-2-(3,5-Bis-trifluoromethyl-phenyl)-N-[4-(5-fluoro-2-methyl-phenyl)-6-(4-hydroxy-2-hydroxymethyl-pyrrolidin-1-yl)-pyridin-3-yl]-N-methyl-isobutyramide]?
Answer: Ki [1]: 1.1 nM; Ki [2]: 1.38 nM
